Assay results reported in patent US20080261291A1 (priority 2004, published 2008).

Tested on: hairy scalp of men with premature alopecia
Conditions: 0.5% in excipient, 0.5 to 1 ml on the head scalp, one week
Description: It is wanted to evaluate the genin of Calocarpum, (Chrysophyllum or Lucuma) as obtained of the example 6 according to this invention, as capillary rubefacient agent for which six affected gentlemen of premature alopecia are tried, to witch are requested to subject themselves to one weeks of test, which consists on being applied from 0.5 to 1 ml of the diluted products in test in the affected area of the head scalp in the clean skin. The two men of the group #1, receives the mixture of genin of Calocarpum, in a preparation consisting on the product as obtained of the example 6, to 0.5% in an excipient. The excipient composition for 100 g is: water 20 g, propyleneglycol 25 g, sunflower oil 54.5 g. The two men of the group #2, receives the same composition of the previous excipient and resorcinol to 0.5%. The two men of the group #3, receives the before mentioned excipient alone. The following questionnaire is registered and the pertinent observations of the test are made.
Age; sex; since when they present the alopecia; duration of the applied treatment; 1.—Was the treatment irritating: a) it was not irritating, b) light, c) moderate, d) high, e) severe. 2.—Irritation type: a) hyperaemia (heat), b) inflammation, c) vesicatión (it produces blisters) 3.—keratolytic (desquamation production): a) without effect, b) light, c) moderate, d) extensive. […]

Structure (SMILES): Oc1cccc(O)c1 [resorcinol]
- keratolysis (desquamation production): moderate keratolysis
